Results: patent US20130295185A1, “COMPOUNDS AND METHODS FOR INDUCING APOPTOSIS IN CANCER CELLS USING A BH3 ALPHA-HELICAL MIMETIC” (H. Lee Moffitt Cancer Center and Research Institute, Inc., priority 2011, published 2013)

Experiments:
A549 cells = test: BH3-M6 and CEP-1612 alone or in combination in A549 cells (MTT, TUNEL, PARP cleavage); format: cell-based, human
Experimental: FIG. 7 is a series of images illustrating BH3-M6 sensitizes A549 cells to the proteasome inhibitor CEP-1612 to induce apoptosis. A549 cells were treated with the indicated concentrations of either drug alone or in combination and then processed for various assays as described in EXPERIMENTAL PROCEDURES. (A) Cell viability as measured by MTT assay after 72 h of treatment, error bars indicate standard deviations of triplicates. (B) apoptosis as determined by TUNEL assay after 48 h of treatment. (C) PARP cleavage after 24 hours of drug treatment.
Release of cytochrome c from isolated mitochondria was measured as described by Takahashi et al. (Takahashi, Y., Karbowski, M., Yamaguchi, H., Kazi, A., Wu, J., Sebti, S. M., Youle, R. J., and Wang, H. G. (2005) Mol Cell Biol 25, 9369-9382) Cell-free caspase-3/-7 activity and the extent of PARP cleavage was determined as described previously. (Kazi, A., Smith, D. M., Zhong, Q., and Dou, Q. P. (2002) Mol Pharmacol 62, 765-771) MTT (3-(4,5-dimethylthiazol-2-yl)-2,5-diphenyltetrazolium bromide) and TUNEL assays were performed according to Kazi et al., both of which are incorporated herein by reference. (Kazi, A., Lawrence, H., Guida, W. C., McLaughlin, M. L., Springett, G. M., Berndt, N., Yip, R. M. L., and Sebti, S. M. (2009) Cell Cycle 8, 1940-1951)
To determine whether BH3-M6 sensitizes cells to apoptosis induced by other stimuli, the inventors treated A549 cells with BH3-M6 and CEP-1612 (Sun, J., Nam, S., Lee, C. S., Li, B., Coppola, D., Hamilton, A. D., Dou, Q. P., and Sebti, S. M. (2001) Cancer Res 61, 1280-1284), either alone or in combination. BH3-M6 and CEP-1612 alone had little effect on cell viability (about 20% and about 28%, respectively) (FIG. 7A) and apoptosis (about 5% and about 8%, respectively) (FIG. 7B). […] The results from FIG. 7C were obtained after about 24 hours of drug treatment, whereas those from FIG. 5C were obtained after about 48 hours of drug treatment.

[1] = system: wild-type and Bax/Bak-deficient fibroblasts; details: cited from earlier work
[2] = system: BH3 binding groove of Bcl-2, Bcl-XL, and Bcl-w; details: cited from earlier work
Mcl-1 and Bfl-1 = details: cited from earlier work

Row | Structure (SMILES) | inhibition of cell viability (A549 cells; A549, MTT, 72 h) | induction of apoptosis (A549 cells; A549, TUNEL, 48 h) | PARP cleavage (A549 cells; A549, immunoblot, about 24 hours) | killing of wild-type vs Bax/Bak-deficient cells [1] | affinity for BH3 binding groove of Bcl-2, Bcl-XL, and Bcl-w [2] | binding to Mcl-1 and Bfl-1 (Mcl-1 and Bfl-1)
1 | CC(C)C[C@@H](C=O)NC(=O)[C@H](CCCN=C(N)N[N+](=O)[O-])NC(=O)C(CCCCCCCCN1C(=O)c2ccccc2C1=O)C1CCCC1 (stereo partly drawn) [CEP-1612] | about 28% | about 8% | but not either drug alone | – | – | –
2 | CN(C)CC[C@H](CSc1ccccc1)Nc1ccc(S(=O)(=O)NC(=O)c2ccc(N3CCN(Cc4ccccc4-c4ccc(Cl)cc4)CC3)cc2)cc1[N+](=O)[O-] [ABT-737] | – | – | – | kills only wild-type, but not Bax/Bak-deficient cells | high affinity | only binds weakly
